{"source": "patent US10517867B2", "about": "“Posaconazole derivative, pharmaceutical composition and use thereof” (priority 2016, dated 2019)", "key": {"[1]": {"assay": "In vitro metabolic stability in human plasma", "format": "in vitro ADME", "conditions": "human, plasma, 37° C., 10 μM compound, read-out: Human plasma T1/2", "method_in_brief": "(§1)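 Human or rat plasma, preincubated 5 min at 37 °C, or intestinal S9 at 37 °C, spiked from 1 mM stock; triplicates sampled at 1, 2, 5, 15 and 30 min into cold internal standard. HPLC quantitation; half-life by non-compartmental analysis.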"}, "[2]": {"assay": "In vitro metabolic stability in human intestine S9", "format": "in vitro ADME", "conditions": "human, intestinal S9; 37° C., 10 μM compound, 1 mg/mL S9, NADPH regeneration system; read-out: Human intestine S9 T1/2", "method_in_brief": "as §1"}, "[3]": {"assay": "In vitro metabolic stability in rat plasma", "format": "in vitro ADME", "conditions": "rat, plasma, 37° C., 10 μM compound, read-out: Rat plasma T1/2", "method_in_brief": "as §1"}, "[4]": {"assay": "In vitro metabolic stability in rat intestine S9", "format": "in vitro ADME", "conditions": "rat, intestinal S9, pH 7.4; 37° C., 10 μM compound, 1 mg/mL S9, NADPH regeneration system; read-out: Rat intestine S9 T1/2", "method_in_brief": "as §1"}, "[5]": {"assay": "Solid stability test (stability chamber, HPLC total impurity)", "format": "physicochemical"}, "[6]": {"tested_on": "Candida albicans ATCC10231", "assay": "Candida albicans vaginitis in mice, intragastric administration", "format": "in vivo, KM mice", "conditions": "logarithm of the CFU values, mean ± SD of 20 mice, 20 mg/kg intragastric once a day"}, "[7]": {"tested_on": "Candida albicans ATCC10231", "assay": "Systemic fungal infection in mice, intravenous administration", "format": "in vivo, ICR mice"}, "[8]": {"tested_on": "Candida albicans ATCC10231", "assay": "Systemic fungal infection in mice, intragastric administration", "format": "in vivo, ICR mice", "conditions": "Candida albicans, ATCC10231, po"}, "[9]": {"tested_on": "Aspergillus Fumigutus (AF) strains", "assay": "Aspergillus fumigatus keratitis in rats, intravenous administration", "conditions": "10 mg/kg tail vein once daily for 5 days; mean ± SD of 10 rats"}, "[10]": {"assay": "Determination of solubility in deionized water (HPLC, external standard)", "conditions": "25 °C, water, thermodynamic from solid"}, "[11]": {"tested_on": "Aspergillus fumigatus AF293", "assay": "Lung Aspergillus fumigatus infection in immunosuppressed mice, intravenous administration", "conditions": "for responders at 20 mg/kg: Aspergillus fumigatus, AF293, in Mus musculus, iv", "description": "ICR male mice were injected intraperitoneally with cyclophosphamide 150 mg/kg and injected subcutaneously with dexamethasone 150 mg/kg for 10 consecutive days. At the same time, the blood was taken to measure the changes of peripheral white blood cells and neutrophils, and mice with neutrophils consistently lower than 100/μl were selected as successfully immunosuppressed mice. Immediately after the last injection, the mice were anesthetized with ethyl ether, and mice were transferred from the initial state of excitement to inhibition. After their bodies were relaxed, the mice were immediately taken. Left hand was used to grasp the mouse to make it stand upright, the middle finger pressed the mouth so that it could breath only with the nose, and the ring finger gently pressed the abdomen to move the diaphragm muscle upward. 30 μl of conidia suspension (Aspergillus fumigatus AF293, 3×10^6 conidia) was sent to the nostrils of the anesthetized mice by a micropipette to allow spontaneous inhalation. After the mouse returned to normal breathing, it was returned to the cage. […] The death of the mice was observed and the survival time was recorded. Seven days later, the mice were sacrificed and their lung tissues were taken to observe the fungal loads of Aspergillus fumigatus in the lungs of the mice."}}, "note": "Where two headings read alike, the source gives them in different places."}
{"smiles": "CC[C@@H]([C@H](C)O)n1ncn(-c2ccc(N3CCN(c4ccc(OC[C@@H]5CO[C@@](Cn6c[n+](C(C)OC(=O)N(C)c7ncccc7COC(=O)CN)cn6)(c6ccc(F)cc6F)C5)cc4)CC3)cc2)c1=O", "note": "(stereo partly drawn) [ST0002]", "values": [{"measurement": "half-life at 10 µM", "setting": "[1]", "value": "0.78 ± 0.15", "unit": "min"}, {"measurement": "half-life at 10 µM", "setting": "[2]", "value": "14.9 ± 3.56", "unit": "min"}, {"measurement": "half-life at 10 µM", "setting": "[3]", "value": "1.12 ± 0.35", "unit": "min"}, {"measurement": "half-life at 10 µM", "setting": "[4]", "value": "18.5 ± 4.56", "unit": "min"}, {"measurement": "Total impurity increment in 30 days", "setting": "[5]", "value": 0.63, "unit": "%"}, {"measurement": "vaginal fungal load of mice, day 3", "setting": "[6]; day 3", "value": "4.18 ± 0.22"}, {"measurement": "vaginal fungal load of mice, day 5", "setting": "[6]; day 5", "value": "4.35 ± 0.41"}, {"measurement": "vaginal fungal load of mice, day 7", "setting": "[6]; day 7", "value": "3.97 ± 0.47"}, {"measurement": "vaginal fungal load of mice, day 11", "setting": "[6]; day 11", "value": "3.05 ± 0.27"}, {"measurement": "responders at 20 mg/kg", "setting": "[7]; 24 h, read-out: survival rate of mice, day 1", "value": 100, "unit": "%"}, {"measurement": "responders at 20 mg/kg", "setting": "[7]; 48 h, read-out: survival rate of mice, day 2", "value": 100, "unit": "%"}, {"measurement": "responders at 20 mg/kg", "setting": "[7]; 72 h, read-out: survival rate of mice, day 3", "value": 100, "unit": "%"}, {"measurement": "responders at 20 mg/kg", "setting": "[7]; 96 h, read-out: survival rate of mice, day 4", "value": 100, "unit": "%"}, {"measurement": "responders at 20 mg/kg", "setting": "[7]; 120 h, read-out: survival rate of mice, day 5", "value": 100, "unit": "%"}, {"measurement": "responders at 20 mg/kg", "setting": "[7]; 144 h, read-out: survival rate of mice, day 6", "value": 90, "unit": "%"}, {"measurement": "responders at 20 mg/kg", "setting": "[7]; 168 h, read-out: survival rate of mice, day 7", "value": 90, "unit": "%"}, {"measurement": "responders at 20 mg/kg", "setting": "[8]; 24 h, read-out: survival rate of mice, day 1, 20 mg/kg intragastric once daily for 5 days, day 1", "value": 100, "unit": "%"}, {"measurement": "responders at 20 mg/kg", "setting": "[8]; 48 h, read-out: survival rate of mice, day 2, 20 mg/kg intragastric once daily for 5 days, day 2", "value": 100, "unit": "%"}, {"measurement": "responders at 20 mg/kg", "setting": "[8]; 72 h, read-out: survival rate of mice, day 3, 20 mg/kg intragastric once daily for 5 days, day 3", "value": 90, "unit": "%"}, {"measurement": "responders at 20 mg/kg", "setting": "[8]; 96 h, read-out: survival rate of mice, day 4, 20 mg/kg intragastric once daily for 5 days, day 4", "value": 80, "unit": "%"}, {"measurement": "responders at 20 mg/kg", "setting": "[8]; 120 h, read-out: survival rate of mice, day 5, 20 mg/kg intragastric once daily for 5 days, day 5", "value": 80, "unit": "%"}, {"measurement": "responders at 20 mg/kg", "setting": "[8]; 144 h, read-out: survival rate of mice, day 6, 20 mg/kg intragastric once daily for 5 days, day 6", "value": 70, "unit": "%"}, {"measurement": "responders at 20 mg/kg", "setting": "[8]; 168 h, read-out: survival rate of mice, day 7, 20 mg/kg intragastric once daily for 5 days, day 7", "value": 70, "unit": "%"}, {"measurement": "Amount of active fungi in cornea at day 7", "setting": "[9]", "value": "2.37 ± 0.49 10^3 CFU/ml"}, {"measurement": "solubility at 30 min", "setting": "[10]", "value": 30.8, "unit": "mg/mL"}, {"measurement": "responders at 20 mg/kg", "setting": "[11]; 24 h, read-out: survival rate of mice, day 1, 20 mg/kg tail vein once daily for 5 days, day 1", "value": 100, "unit": "%"}, {"measurement": "responders at 20 mg/kg", "setting": "[11]; 48 h, read-out: survival rate of mice, day 2, 20 mg/kg tail vein once daily for 5 days, day 2", "value": 100, "unit": "%"}, {"measurement": "responders at 20 mg/kg", "setting": "[11]; 72 h, read-out: survival rate of mice, day 3, 20 mg/kg tail vein once daily for 5 days, day 3", "value": 100, "unit": "%"}, {"measurement": "responders at 20 mg/kg", "setting": "[11]; 96 h, read-out: survival rate of mice, day 4, 20 mg/kg tail vein once daily for 5 days, day 4", "value": 100, "unit": "%"}, {"measurement": "responders at 20 mg/kg", "setting": "[11]; 120 h, read-out: survival rate of mice, day 5, 20 mg/kg tail vein once daily for 5 days, day 5", "value": 90, "unit": "%"}, {"measurement": "responders at 20 mg/kg", "setting": "[11]; 144 h, read-out: survival rate of mice, day 6, 20 mg/kg tail vein once daily for 5 days, day 6", "value": 90, "unit": "%"}, {"measurement": "responders at 20 mg/kg", "setting": "[11]; 168 h, read-out: survival rate of mice, day 7, 20 mg/kg tail vein once daily for 5 days, day 7", "value": 80, "unit": "%"}, {"measurement": "lung fungal load", "setting": "[11]; mouse lung tissue, seven days later, 20 mg/kg tail vein once daily for 5 days, mean ± SD", "value": "1.89 ± 0.22 10^4 CFU/ml"}]}
